Earlier results as cited in patent publication US20020082283A1, “Nitrogen-containing compounds and their use as glycine transport inhibitors” (Gliatech, Inc., priority 2000, published 2002).

Test system: NMDA receptor
Settings: in vitro at concentrations at which clinical efficacy is seen

increase in NMDA receptor activity: ~40%
Structure (SMILES): O=C(CCCN1CCC(O)(c2ccc(Cl)cc2)CC1)c1ccc(F)cc1 [haloperidol]
